Read-outs that look alike come from different tables or passages of the source. Starred links: 1 amine or outer side, 2 acyl side, 3 side chain; linkers in the order of their positions; H or OH if unused. Positions of bridges follow the written chain, without caps; N, C: chain ends. Non-standard residues stand in square brackets, D forms with d. Residues, ends and D or L forms follow the SMILES beside them. Chains are numbered I, II in the order given. *: point of attachment. X5 = O=C(O)CCCCCCCCCCCCC(=O)N[C@@H](CCC(=O)N[C@@H](CCCCN*)C(=O)O)C(=O)O; X4 = O=C(O)CCCCCCCCCCC(=O)N[C@@H](CCC(=O)N[C@@H](CCCCN*)C(=O)O)C(=O)O; X6 = O=C(O)CCCCCCCCC(=O)N[C@@H](CCC(=O)N[C@@H](CCCCN*)C(=O)O)C(=O)O; Ala(piperidin-4-yl) = O=C([C@H](CC1CCN([*:3])CC1)N[*:1])[*:2]; Phe(4-COOH) = N[C@@H](Cc1ccc(C(=O)O)cc1)C(=O)O; Phe(4-F) = N[C@@H](Cc1ccc(F)cc1)C(=O)O; C12 diacid = O=C(O)CCCCCCCCCCC(=O)*; X1 = C[C@@H](Cc1ccc(O)cc1)C(=O)*; NMeE = CN[C@@H](CCC(=O)O)C(=O)O; Cha = N[C@@H](CC1CCCCC1)C(=O)O; Cit = NC(=O)NCCC[C@H](N)C(=O)O; NMeNle = CCCC[C@H](NC)C(=O)O; hCys = N[C@@H](CCS)C(=O)O; PEG2 = NCCOCCOCCC(=O)O; X2 = O=C(C[*:1])[*:2]; Aib = CC(C)(N)C(=O)O
Columns and labels:
Type in all cases: cell-based
[1] = target: SARS-CoV-2-derived S protein, Gamma strain (Severe acute respiratory syndrome coronavirus 2, UniProt P0DTC2, L18F/T20N/P26S/D138Y/R190S/K417T/E484K/N501Y/D614G/H655Y/T1027I/V1176F, form not given)
[2] = tested on: SARS-CoV-2-derived S protein, Delta strain
[3] = target: SARS-CoV-2-derived S protein, Alpha strain (Severe acute respiratory syndrome coronavirus 2, UniProt P0DTC2, DEL69-70/DEL144-144/N501Y/A570D/D614G/P681H/T716I/S982A/D1118H, form not given)
[4] = target: SARS-CoV-2-derived S protein, Beta strain (Severe acute respiratory syndrome coronavirus 2, UniProt P0DTC2, D80A/D215G/DEL241-243/K417N/E484K/N501Y/D614G/A701V, form not given)

## CCCC[C@H]1C(=O)NC(C)(C)C(=O)N[C@@H](CC2CCCCC2)C(=O)N[C@@H](Cc2ccc(F)cc2)C(=O)NC(C)(C)C(=O)N[C@@H](Cc2ccc(O)cc2)C(=O)N[C@@H](Cc2ccc(O)cc2)C(=O)N[C@@H](Cc2ccc(C(=O)O)cc2)C(=O)N[C@@H](CC2CCNCC2)C(=O)N[C@@H](CC2CCCCC2)C(=O)N[C@H](C(=O)N[C@H](CCC(=O)O)C(N)=O)CSCC(=O)N(C)[C@@H](CCC(=O)O)C(=O)N1C [Peptide 5555_p020] ({CH2CO}-[NMeE][NMeNle][Aib][Cha][Phe(4-F)][Aib]YY[Phe(4-COOH)][Ala(piperidin-4-yl)][Cha]C[dE]-NH2; thioether N-12)
[1]
  Imax: % (at 500 nM): 100%
[3]
  Imax: % (at 500 nM): 100%
[4]
  Imax: % (at 500 nM): 100%

## CCCC[C@H]1C(=O)NC(C)(C)C(=O)N[C@@H](CC2CCCCC2)C(=O)N[C@@H](Cc2ccc(F)cc2)C(=O)N[C@H](CC(=O)O)C(=O)N[C@@H](Cc2ccc(O)cc2)C(=O)N[C@@H](Cc2ccc(O)cc2)C(=O)N[C@@H](CCCNC(N)=O)C(=O)N[C@H](CCCCN)C(=O)N[C@@H](CC2CCCCC2)C(=O)N[C@H](C(=O)N[C@H](CCC(=O)O)C(=O)O)CSCC(=O)N(C)[C@@H](CCC(=O)O)C(=O)N1C [Peptide 5555_p028] ({CH2CO}-[NMeE][NMeNle][Aib][Cha][Phe(4-F)][dD]YY[Cit][dK][Cha]C[dE]-OH; thioether N-12)
[1]
  Imax: % (at 500 nM): 95%
[2]; Table 3
  IC50: […]
  Imax: % (at 500 nM): […]
[3]
  Imax: % (at 500 nM): 96%
[4]
  Imax: % (at 500 nM): 93%

## CCCC[C@@H](C(=O)NC(C)(C)C(=O)N[C@@H](CC1CCCCC1)C(=O)N[C@@H](Cc1ccc(F)cc1)C(=O)N[C@H](CC(=O)O)C(N)=O)N(C)C(=O)[C@H](CCC(=O)O)N(C)C(=O)CSCC[C@H](NC(=O)[C@H](CC1CCCCC1)NC(=O)[C@@H](CCCCN)NC(=O)[C@H](CCCNC(N)=O)NC(=O)[C@H](Cc1ccc(O)cc1)NC(=O)[C@@H](C)Cc1ccc(O)cc1)C(=O)N[C@H](CCC(=O)O)C(=O)N[C@H](CCCCNC(=O)CCCCCCCCCCC(=O)O)C(N)=O [Peptide 5555_p221] (I: X1-Y[Cit][dK][Cha][hCys][dE][dK](C12 diacid)-NH2 / II: [NMeE][NMeNle][Aib][Cha][Phe(4-F)][dD]-NH2; linker I:5-II:N via X2)
[2]; Table 12
  IC50: 2.6 nM
  Imax: % (at 500 nM): 97%

## CCCC[C@H]1C(=O)NC(C)(C)C(=O)N[C@@H](CC2CCCCC2)C(=O)N[C@@H](Cc2ccc(F)cc2)C(=O)N[C@H](CC(=O)O)C(=O)N[C@@H](Cc2ccc(O)cc2)C(=O)N[C@@H](Cc2ccc(O)cc2)C(=O)N[C@@H](CCCNC(N)=O)C(=O)N[C@H](CCCCN)C(=O)N[C@@H](CC2CCCCC2)C(=O)N[C@H](C(=O)N[C@H](CCC(=O)O)C(=O)NCCOCCOCCC(=O)N[C@H](CCCCNC(=O)CCCCCCCCCCC(=O)O)C(N)=O)CSCC(=O)N(C)[C@@H](CCC(=O)O)C(=O)N1C [Peptide 5555_p227] ({CH2CO}-[NMeE][NMeNle][Aib][Cha][Phe(4-F)][dD]YY[Cit][dK][Cha]C[dE][PEG2][dK](C12 diacid)-NH2; thioether N-12)
[2]; Table 12
  IC50: 1.9 nM
  Imax: % (at 500 nM): 100%

## CCCC[C@H]1C(=O)NC(C)(C)C(=O)N[C@@H](CC2CCCCC2)C(=O)N[C@@H](Cc2ccc(F)cc2)C(=O)N[C@H](CC(=O)O)C(=O)N[C@@H](Cc2ccc(O)cc2)C(=O)N[C@@H](Cc2ccc(O)cc2)C(=O)N[C@@H](CCCNC(N)=O)C(=O)N[C@H](CCCCN)C(=O)N[C@@H](CC2CCCCC2)C(=O)N[C@H](C(=O)N[C@H](CCC(=O)O)C(=O)NCCCC[C@H](NC(=O)CC[C@H](NC(=O)CCCCCCCCC(=O)O)C(=O)O)C(=O)O)CSCC(=O)N(C)[C@@H](CCC(=O)O)C(=O)N1C [Peptide 5555_p233] ({CH2CO}-[NMeE][NMeNle][Aib][Cha][Phe(4-F)][dD]YY[Cit][dK][Cha]C[dE]-X6; thioether N-12)
[2]; Table 12
  IC50: 4.2 nM
  Imax: % (at 500 nM): 99%

## CCCC[C@H]1C(=O)NC(C)(C)C(=O)N[C@@H](CC2CCCCC2)C(=O)N[C@@H](Cc2ccc(F)cc2)C(=O)N[C@H](CC(=O)O)C(=O)N[C@@H](Cc2ccc(O)cc2)C(=O)N[C@@H](Cc2ccc(O)cc2)C(=O)N[C@@H](CCCNC(N)=O)C(=O)N[C@H](CCCCN)C(=O)N[C@@H](CC2CCCCC2)C(=O)N[C@H](C(=O)N[C@H](CCC(=O)O)C(=O)NCCCC[C@H](NC(=O)CC[C@H](NC(=O)CCCCCCCCCCC(=O)O)C(=O)O)C(=O)O)CSCC(=O)N(C)[C@@H](CCC(=O)O)C(=O)N1C [Peptide 5555_p234] ({CH2CO}-[NMeE][NMeNle][Aib][Cha][Phe(4-F)][dD]YY[Cit][dK][Cha]C[dE]-X4; thioether N-12)
[2]; Table 12
  IC50: 5.9 nM
  Imax: % (at 500 nM): 99%

## CCCC[C@H]1C(=O)NC(C)(C)C(=O)N[C@@H](CC2CCCCC2)C(=O)N[C@@H](Cc2ccc(F)cc2)C(=O)N[C@H](CC(=O)O)C(=O)N[C@@H](Cc2ccc(O)cc2)C(=O)N[C@@H](Cc2ccc(O)cc2)C(=O)N[C@@H](CCCNC(N)=O)C(=O)N[C@H](CCCCN)C(=O)N[C@@H](CC2CCCCC2)C(=O)N[C@H](C(=O)N[C@H](CCC(=O)O)C(=O)NCCCC[C@H](NC(=O)CC[C@H](NC(=O)CCCCCCCCCCCCC(=O)O)C(=O)O)C(=O)O)CSCC(=O)N(C)[C@@H](CCC(=O)O)C(=O)N1C [Peptide 5555_p235] ({CH2CO}-[NMeE][NMeNle][Aib][Cha][Phe(4-F)][dD]YY[Cit][dK][Cha]C[dE]-X5; thioether N-12)
[2]; Table 12
  IC50: 7 nM
  Imax: % (at 500 nM): 99%
